{
  "source": "patent US20240400986A1",
  "about": "“MEMBRANE BOUND COMPOSITIONS AND METHODS RELATING TO SAME” (FLAGSHIP PIONEERING INNOVATIONS VII, LLC, priority 2021, published 2024)",
  "key": {"[1]": {"tested_on": "cardiomyocytic cell line derived from human ventricular heart tissue", "test": "Cell viability in cardiomyocyte compound screen (CellTiter-Glo)", "assay_type": "cell-based"}, "[2]": {"tested_on": "cardiomyocytic cell line derived from human ventricular heart tissue", "test": "Small molecule compound screen of gigasome production in cardiomyocytic monocultures;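 on all read-outs here: gigasomes shed into the culture medium were imaged by confocal microscopy and counted as round particles lacking nuclear signal, extrapolated to the whole well, fold change is relative to DMSO vehicle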", "conditions": "for fold induction at 10 µM / fold induction at 1 µM / fold induction at 0.01 µM / fold induction at 0.1 µM: Homo sapiens, Cardiomyocyte, read-out: Fold Change of Gigasomes Produced vs. DMSO; for fold induction at 10 µM / fold induction at 1 µM / fold induction at 0.01 µM / fold induction at 0.1 µM / downregulation of gigasome production: 24 h; for Number of Gigasomes Produced / Fold Change of Gigasomes Produced vs. DMSO / downregulation of gigasome production: cardiomyocytes; for downregulation of gigasome production: doses 10-10,000 nM"}, "[3]": {"tested_on": "neuronal cell line derived from human neuroblastoma", "test": "Small molecule compound screen of gigasome production in neuronal monocultures", "conditions": "Oleuropein across doses; Wedelolactone 10,000 nM; 24 h"}, "[4]": {"conditions": "Table 22, dose 10000 nM, 24 hours"}, "[5]": {"conditions": "Table 23 (down-regulators), dose 10 nM, cardiomyocytes"}, "[6]": {"conditions": "Table 23 (down-regulators), dose 100 nM, cardiomyocytes"}, "[7]": {"conditions": "Table 23 (down-regulators), dose 1000 nM, cardiomyocytes"}, "[8]": {"conditions": "Table 23 (down-regulators), dose 10000 nM, cardiomyocytes"}, "[9]": {"conditions": "Table 23 (down-regulators), dose 10 nM"}, "[10]": {"conditions": "Table 23 (down-regulators), dose 100 nM"}, "[11]": {"conditions": "Table 23 (down-regulators), dose 1000 nM"}, "[12]": {"conditions": "Table 23 (down-regulators), dose 10000 nM"}, "[13]": {"conditions": "Table 22, dose 1000 nM, 24 hours"}},
  "note": "Where a name gives a salt, the structure may show the parent alone.",
  "data": [
    {"compound": "Cc1cc(C)c(S(=O)(=O)N(Cc2ccc(-c3cccc(S(C)(=O)=O)c3)cc2)Cc2ccc(C(F)(F)F)o2)c(C)c1", "note": "[GSK2033]", "values": [
      {"measurement": "Viability", "setting": "[1]; human, 24 h, 10000 nM", "value": 100, "unit": "%"},
      {"measurement": "fold induction at 10 µM", "setting": "[2]", "value": "1.25 to 1.5"},
      {"measurement": "Number of Gigasomes Produced", "setting": "[2]; [4]", "value": "150-175"}
    ]},
    {"compound": "CCCCCCCCCCCCCCOc1ccc(C(=O)O)o1", "note": "[TOFA]", "values": [
      {"measurement": "Viability", "setting": "[1]; [5]", "value": ">75", "unit": "%"},
      {"measurement": "Viability", "setting": "[1]; [6]", "value": 100.0, "unit": "%"},
      {"measurement": "Viability", "setting": "[1]; [7]", "value": ">75", "unit": "%"},
      {"measurement": "Viability", "setting": "[1]; [8]", "value": 100.0, "unit": "%"},
      {"measurement": "Fold Change of Gigasomes Produced vs. DMSO", "setting": "[2]; [9]", "value": "1.0-1.25"},
      {"measurement": "Number of Gigasomes Produced", "setting": "[2]; [9]", "value": "120-135"},
      {"measurement": "Fold Change of Gigasomes Produced vs. DMSO", "setting": "[2]; [10]", "value": "1.0-1.25"},
      {"measurement": "Number of Gigasomes Produced", "setting": "[2]; [10]", "value": "105-120"},
      {"measurement": "Fold Change of Gigasomes Produced vs. DMSO", "setting": "[2]; [11]", "value": "0.75-1.0"},
      {"measurement": "Number of Gigasomes Produced", "setting": "[2]; [11]", "value": "105-120"},
      {"measurement": "Fold Change of Gigasomes Produced vs. DMSO", "setting": "[2]; [12]", "value": "0.75-1.0"},
      {"measurement": "Number of Gigasomes Produced", "setting": "[2]; [12]", "value": "75-90"}
    ]},
    {"compound": "C[C@@H]1COCCN1c1cc(=O)n2c(n1)N(Cc1cncc(Cl)c1)[C@H](C(F)(F)F)CC2", "note": "[SAR405]", "values": [
      {"measurement": "Viability", "setting": "[1]; human, 24 h, 1000 nM", "value": 100.0, "unit": "%"},
      {"measurement": "Viability", "setting": "[1]; human, 24 h, 10000 nM", "value": ">75", "unit": "%"},
      {"measurement": "fold induction at 1 µM", "setting": "[2]", "value": "1 to 1.25"},
      {"measurement": "fold induction at 10 µM", "setting": "[2]", "value": "1 to 1.25"},
      {"measurement": "Number of Gigasomes Produced", "setting": "[2]; [13]", "value": "150-175"},
      {"measurement": "Number of Gigasomes Produced", "setting": "[2]; [4]", "value": "200-225"}
    ]},
    {"compound": "COC(=O)C=Cc1ccccc1", "note": "[Methyl cinnamate]", "values": [
      {"measurement": "Viability", "setting": "[1]; human, 24 h, 1000 nM", "value": ">75", "unit": "%"},
      {"measurement": "fold induction at 1 µM", "setting": "[2]", "value": "1.25 to 1.5"},
      {"measurement": "Number of Gigasomes Produced", "setting": "[2]; [13]", "value": "150-175"}
    ]},
    {"compound": "CN(C)CCCSC(=N)N", "note": "[Dimaprit dihydrochloride]", "values": [
      {"measurement": "Viability", "setting": "[1]; [5]", "value": 100.0, "unit": "%"},
      {"measurement": "Viability", "setting": "[1]; [6]", "value": 100.0, "unit": "%"},
      {"measurement": "Viability", "setting": "[1]; [7]", "value": ">75", "unit": "%"},
      {"measurement": "Viability", "setting": "[1]; [8]", "value": 100.0, "unit": "%"},
      {"measurement": "fold induction at 0.01 µM", "setting": "[2]", "value": "0.75 to 1"},
      {"measurement": "fold induction at 0.1 µM", "setting": "[2]", "value": "0.75 to 1"},
      {"measurement": "fold induction at 1 µM", "setting": "[2]", "value": "0.5 to 0.75"},
      {"measurement": "fold induction at 10 µM", "setting": "[2]", "value": "0.25 to 0.5"},
      {"measurement": "Number of Gigasomes Produced", "setting": "[2]; [9]", "value": "90-105"},
      {"measurement": "Number of Gigasomes Produced", "setting": "[2]; [10]", "value": "75-90"},
      {"measurement": "Number of Gigasomes Produced", "setting": "[2]; [11]", "value": "50-75"},
      {"measurement": "Number of Gigasomes Produced", "setting": "[2]; [12]", "value": "50-75"}
    ]},
    {"compound": "Cn1c(=O)n(-c2ccc(C(C)(C)C#N)cc2)c2c3cc(-c4cnc5ccccc5c4)ccc3ncc21", "note": "[Dactolisib]", "values": [
      {"measurement": "Viability", "setting": "[1]; human, 24 h, 10000 nM", "value": ">75", "unit": "%"},
      {"measurement": "fold induction at 10 µM", "setting": "[2]", "value": "1.25 to 1.5"},
      {"measurement": "Number of Gigasomes Produced", "setting": "[2]; [4]", "value": "150-175"}
    ]},
    {"compound": "NC(=O)N1c2ccccc2C=Cc2ccccc21", "note": "[Carbamazepine]", "values": [
      {"measurement": "Viability", "setting": "[1]; human, 24 h, 10 nM", "value": ">75", "unit": "%"},
      {"measurement": "Viability", "setting": "[1]; human, 24 h, 1000 nM", "value": ">75", "unit": "%"},
      {"measurement": "Viability", "setting": "[1]; human, 24 h, 10000 nM", "value": ">75", "unit": "%"},
      {"measurement": "fold induction at 0.01 µM", "setting": "[2]", "value": "1 to 1.25"},
      {"measurement": "fold induction at 1 µM", "setting": "[2]", "value": "1.25 to 1.5"},
      {"measurement": "fold induction at 10 µM", "setting": "[2]", "value": "1.25 to 1.5"},
      {"measurement": "Number of Gigasomes Produced", "setting": "[2]; Table 22, dose 10 nM, 24 hours", "value": "200-225"},
      {"measurement": "Number of Gigasomes Produced", "setting": "[2]; [13]", "value": "250-275"},
      {"measurement": "Number of Gigasomes Produced", "setting": "[2]; [4]", "value": "250-275"}
    ]},
    {"compound": "O=C(O)c1cccnc1C(=O)O", "note": "[Quinolinic acid]", "values": [
      {"measurement": "Viability", "setting": "[1]; Table 22, dose 100 nM, cardiomyocytes, 24 hours", "value": 100, "unit": "%"},
      {"measurement": "fold induction at 0.1 µM", "setting": "[2]", "value": "1 to 1.25"},
      {"measurement": "Number of Gigasomes Produced", "setting": "[2]; Table 22, dose 100 nM, 24 hours", "value": "150-175"}
    ]},
    {"compound": "O=S(=O)(c1ccccc1)N(CC(F)(F)F)c1ccc(C(O)(C(F)(F)F)C(F)(F)F)cc1", "note": "[Compound T0901317]", "values": [
      {"measurement": "Viability", "setting": "[1]; human, 24 h, 10000 nM", "value": ">75", "unit": "%"},
      {"measurement": "fold induction at 10 µM", "setting": "[2]", "value": "1 to 1.25"},
      {"measurement": "Number of Gigasomes Produced", "setting": "[2]; [4]", "value": "150-175"}
    ]},
    {"compound": "COc1cc(O)c2c(c1)oc(=O)c1c3cc(O)c(O)cc3oc21", "note": "[Wedelolactone, reference compound]", "values": [
      {"measurement": "Viability", "setting": "[1]; human, 24 h, 10 nM", "value": 100.0, "unit": "%"},
      {"measurement": "Viability", "setting": "[1]; human, 24 h, 100 nM", "value": 100.0, "unit": "%"},
      {"measurement": "Viability", "setting": "[1]; human, 24 h, 1000 nM", "value": ">75", "unit": "%"},
      {"measurement": "Viability", "setting": "[1]; human, 24 h, 10000 nM", "value": ">75", "unit": "%"},
      {"measurement": "fold induction at 0.01 µM", "setting": "[2]", "value": "0.5 to 0.75"},
      {"measurement": "fold induction at 0.1 µM", "setting": "[2]", "value": "0.5 to 0.75"},
      {"measurement": "fold induction at 1 µM", "setting": "[2]", "value": "0.5 to 0.75"},
      {"measurement": "fold induction at 10 µM", "setting": "[2]", "value": "< 0.25"},
      {"measurement": "Number of Gigasomes Produced", "setting": "[2]; [9]", "value": "75-90"},
      {"measurement": "Number of Gigasomes Produced", "setting": "[2]; [10]", "value": "75-90"},
      {"measurement": "Number of Gigasomes Produced", "setting": "[2]; [11]", "value": "50-75"},
      {"measurement": "Number of Gigasomes Produced", "setting": "[2]; [12]", "value": "<20"},
      {"measurement": "downregulation of gigasome production", "setting": "[2]", "value": "dose-dependent downregulation"},
      {"measurement": "gigasome production, fold-change compared to DMSO", "setting": "[3]", "value": "< 0.2"}
    ]},
    {"compound": "O=C(O)CC[N+](=O)[O-]", "note": "[3-Nitropropanoic acid, reference compound]", "values": [
      {"measurement": "Viability", "setting": "[1]; [5]", "value": ">75", "unit": "%"},
      {"measurement": "Viability", "setting": "[1]; [6]", "value": 100.0, "unit": "%"},
      {"measurement": "Viability", "setting": "[1]; [7]", "value": ">75", "unit": "%"},
      {"measurement": "Viability", "setting": "[1]; [8]", "value": 100.0, "unit": "%"},
      {"measurement": "fold induction at 0.01 µM", "setting": "[2]", "value": "0.75 to 1"},
      {"measurement": "fold induction at 0.1 µM", "setting": "[2]", "value": "0.75 to 1"},
      {"measurement": "fold induction at 1 µM", "setting": "[2]", "value": "0.25 to 0.5"},
      {"measurement": "fold induction at 10 µM", "setting": "[2]", "value": "0.25 to 0.5"},
      {"measurement": "Number of Gigasomes Produced", "setting": "[2]; [9]", "value": "105-120"},
      {"measurement": "Number of Gigasomes Produced", "setting": "[2]; [10]", "value": "90-105"},
      {"measurement": "Number of Gigasomes Produced", "setting": "[2]; [11]", "value": "50-75"},
      {"measurement": "Number of Gigasomes Produced", "setting": "[2]; [12]", "value": "35-50"},
      {"measurement": "downregulation of gigasome production", "setting": "[2]", "value": "dose-dependent downregulation"}
    ]}
  ]
}
